# Results reported in US10702512B2, “Treatment of debilitating fatigue” (A. CARLSSON RESEARCH AB, priority 2015, dated 2020).
# Tests used:
# water solubility = format: physicochemical; conditions: hydrochloride, white powder
# Experimental: The investigated substance is the S enantiomer with the chemical name (S)-3-[3-(methylsulfonyl) phenyl]-1-propylpiperidine hydrochloride, referred herein to as OSU6162. The substance is a white powder with a melting point of 177-182° C. and water solubility of >2000 mg/ml.
# ME/CFS patients [1] = test: mental fatigue self-assessment questionnaire (MFS) total score, phase II clinical study; format: in vivo, human
# Experimental: As used herein, the term “MFS” refers to a the mental fatigue self-assessment questionnaire (Johansson B et al (2010) Brain Injury 2010; 24:2-12). […] Circular coated tablets for oral use of 15 mg and matching placebos was used. The tablets were administered by research nurses at the study site. The tablets were circular coated tablets for oral use containing 15 mg OSU6162. Matching placebos were used. The start dose was 15 mg OSU6162 twice daily (before breakfast and lunch) during 1 week with dose increase up to 30 mg twice daily during the following week. Efficacy was measured according to ratings using the self-assessment questionnaire for mental fatigue and related symptoms (MFS) after neurological disorders and injuries (Johansson et al, supra). Another primary endpoint was the result of the rating by the Clinical Global Impression of Change (Guy, supra), which rating was made by the doctor in charge of the patient. CGI-C scores range from 1 (very much improved) through to 7 (very much worse). To examine the effect of treatment and concomitant use of an antidepressant, antidepressant was included as a fixed factor in the analyses. […] Outcome targets FF, MFS and BDI were measured.
# ME/CFS patients [2] = test: Clinical Global Impression of Change (CGI-C), phase II clinical study; format: in vivo, human; conditions: for patients exhibiting improved CGI-C values: entire population
# Experimental: As used herein “Clinical Global Impression of Change” (CGI-C) (also known as Clinical Global Impression—Improvement (CGI-I)) scale is a 7 point scale that requires the clinician to assess how much the patient's illness has improved or worsened relative to a baseline state at the beginning of the intervention. […] Circular coated tablets for oral use of 15 mg and matching placebos was used. The tablets were administered by research nurses at the study site. The tablets were circular coated tablets for oral use containing 15 mg OSU6162. Matching placebos were used. The start dose was 15 mg OSU6162 twice daily (before breakfast and lunch) during 1 week with dose increase up to 30 mg twice daily during the following week. Efficacy was measured according to ratings using the self-assessment questionnaire for mental fatigue and related symptoms (MFS) after neurological disorders and injuries (Johansson et al, supra). Another primary endpoint was the result of the rating by the Clinical Global Impression of Change (Guy, supra), which rating was made by the doctor in charge of the patient. CGI-C scores range from 1 (very much improved) through to 7 (very much worse). Clinical Global Impression of Change (CGI-C) was evaluated by the clinician for each patient.
# ME/CFS patients [3] = test: neuropsychological tests of cognitive functioning, overall; format: in vivo, human; conditions: all neuropsychological tests employed; no significant difference vs placebo
# ME/CFS patients [4] = test: Stroop tests (Victoria version); format: in vivo, human; set-up: Stroop 2, mean / Stroop 2, Difference / Stroop 2, median / Stroop 3, mean / Stroop 3, Difference / Stroop 3, median / Stroop 1, mean / Stroop 1, Difference / Stroop 1, median: unit not given here
# Experimental: Next, patients were evaluated using a neuropsychological test. 61 patients were included in a neuropsychological examination. All subjects were tested once in connection with the randomization with the BNIS neuropsychological screening test. 20-30 minutes was required for this test. With the purpose of measuring the cognitive effects of the OSU6162 treatment six more tests were distributed at a first occasion before the initiation of treatment and at a second occasion after the treatment was completed. These tests required 20 minutes each. All tests were performed by a neuropsychologist. The Stroop test (Victoria version) is a time-based test sensitive to frontal lobe dysfunction. It measures executive functioning and is validated and used internationally. Depression and anxiety could influence the results. Speeds of processing and conceptual abilities contribute to the performance. It also reflects the ability of concentration. The test consists of three cards each containing six rows of four items. Stroop I is on the first card. In this subtest the subject must name as quickly as possible the color of 24 dots printed in blue, green, red and yellow. Each color is used six times and the four colors are arranged in pseudo-random order within the array, each color appears once in a row. Stroop 2 is on the second card. In this subtest the dots are replaced by common words printed in lower-case letters. The subject is required to name the colors in which the stimuli are presented and to disregard their verbal content. Stroop 3 is on the third card. In this subtest the colored stimuli are the color names “blue, green, red and yellow” printed in lower case letters so that the print color never corresponds to the color name.
# ME/CFS patients [5] = test: Beck Depression Inventory (BDI) total score, phase II clinical study; format: in vivo, human; conditions: 2-way ANOVA, OSU6162 vs placebo
# Experimental: Circular coated tablets for oral use of 15 mg and matching placebos was used. The tablets were administered by research nurses at the study site. The tablets were circular coated tablets for oral use containing 15 mg OSU6162. Matching placebos were used. The start dose was 15 mg OSU6162 twice daily (before breakfast and lunch) during 1 week with dose increase up to 30 mg twice daily during the following week. Additionally, the clinical effect was evaluated using the FF-scale, The Beck/BDI scale, VAS pain scale and with neuropsychological tests. To examine the effect of treatment and concomitant use of an antidepressant, antidepressant was included as a fixed factor in the analyses. […] Outcome targets FF, MFS and BDI were measured.
smiles,measurement,setting,value
"CCCN1CCC[C@@H](c2cccc(S(C)(=O)=O)c2)C1.Cl [OSU6162, (3S)-3-[3-(methylsulfonyl)-phenyl]-1-propylpiperidine hydrochloride]",solubility,water solubility,> 2000 mg/mL
same,MFS overall group difference between OSU6162 and placebo,"ME/CFS patients [1]; 2-way ANOVA, F1,60=3.997, p=0.050",borderline significant trend
same,MFS interaction between treatment with OSU6162 and antidepressant over time,"ME/CFS patients [1]; 3-way ANOVA week*treatm*antidepr, F3,180=2.755, p=0.044",statistically significant 3-way interactions
same,MFS overall difference between OSU6162 and placebo,"ME/CFS patients [1]; 3-way analysis with antidepressant as fixed factor, F1,60=3.578, p=0.063",tendency to an overall difference
same,MFS difference between OSU6162 treated and placebo treated patients,"ME/CFS patients [1]; patients not on antidepressant therapy, post hoc comparison",No difference
same,"MFS change from week 0, difference OSU6162 vs placebo (95% CI)","ME/CFS patients [1]; patients on stable antidepressant therapy, after one week of treatment, F1,56=5.915, p=0.018, Bonferroni",−4.82 (−8.79 to −0.85)
same,patients exhibiting improved CGI-C values,"ME/CFS patients [2]; after one week of treatment (15 mg twice daily, oral), 13 of 30",43%
same,patients exhibiting improved CGI-C values,"ME/CFS patients [2]; after two weeks of treatment (30 mg twice daily in week 2, oral), 17 of 30",57%
same,difference in CGI-C between treatment groups (OSU6162 vs placebo),ME/CFS patients [2]; entire patient population,no significant difference
same,CGI-C improvement vs placebo,"ME/CFS patients [2]; subgroup receiving concomitant antidepressant treatment, after one week, Mann-Whitney U-test p=0.0524",clear tendency after one week for a greater improvement
same,effect of treatment on cognitive abilities,ME/CFS patients [3],does not affect the cognitive abilities
same,"Stroop 1, max",ME/CFS patients [4]; after treatment,20 s
same,"Stroop 1, mean",ME/CFS patients [4]; after treatment,12.77
same,"Stroop 1, median",ME/CFS patients [4]; after treatment,12
same,"Stroop 1, min",ME/CFS patients [4]; after treatment,8
same,"Stroop 2, max",ME/CFS patients [4]; after treatment,29 s
same,"Stroop 2, mean",ME/CFS patients [4]; after treatment,16.9
same,"Stroop 2, median",ME/CFS patients [4]; after treatment,16
same,"Stroop 2, min",ME/CFS patients [4]; after treatment,9
same,"Stroop 3, max",ME/CFS patients [4]; after treatment,62 s
same,"Stroop 3, mean",ME/CFS patients [4]; after treatment,23.48
same,"Stroop 3, median",ME/CFS patients [4]; after treatment,23
same,"Stroop 3, min",ME/CFS patients [4]; after treatment,12
same,Stroop tests difference between OSU6162 and placebo groups,ME/CFS patients [4]; before and after treatment,No significant differences
same,"Stroop 1, max",ME/CFS patients [4]; before treatment,22 s
same,"Stroop 1, mean",ME/CFS patients [4]; before treatment,13.97
same,"Stroop 1, median",ME/CFS patients [4]; before treatment,14
same,"Stroop 1, min",ME/CFS patients [4]; before treatment,9
same,"Stroop 2, max",ME/CFS patients [4]; before treatment,39 s
same,"Stroop 2, mean",ME/CFS patients [4]; before treatment,19.5
same,"Stroop 2, median",ME/CFS patients [4]; before treatment,19
same,"Stroop 2, min",ME/CFS patients [4]; before treatment,10
same,"Stroop 3, max",ME/CFS patients [4]; before treatment,51 s
same,"Stroop 3, mean",ME/CFS patients [4]; before treatment,26.8
same,"Stroop 3, median",ME/CFS patients [4]; before treatment,24
same,"Stroop 3, min",ME/CFS patients [4]; before treatment,14
same,"Stroop 1, Difference",ME/CFS patients [4]; before vs after treatment,1.2
same,"Stroop 2, Difference",ME/CFS patients [4]; before vs after treatment,3.2
same,"Stroop 3, Difference",ME/CFS patients [4]; before vs after treatment,4.9
same,BDI main effect of treatment,ME/CFS patients [5],None
